Assay results published in ChEMBL document CHEMBL1201862, “PubChem BioAssay data set” (2004).
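Tested at 5 concentrations; 48 h exposure; 96-well plates; endpoints linearly interpolated, else capped at highest concentration. GI50 is the concentration that inhibits growth by half.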 Activity calls are given as the source filed them. No stated cut-off is given here; in the data, active = GI50 up to about 1.1 µM and inactive = higher.

Assays:
Test in all cases: NCI-60 cell line screen, 48 h
Malme-3M = system: Malme-3M
NCI/ADR-RES = system: NCI/ADR-RES
SW-620 = system: SW-620
PC-3 = system: PC-3
SNB-75 = system: SNB-75
MDA-N = system: MDA-N
K562 = system: K562
Hs-578T = system: Hs-578T
MCF7 = system: MCF7
CAKI-1 = system: CAKI-1
HOP-92 = system: HOP-92
COLO 205 = system: COLO 205
OVCAR-4 = system: OVCAR-4
HOP-62 = system: HOP-62
M14 = system: M14
UACC-257 = system: UACC-257
LOX IMVI = system: LOX IMVI
BT-549 = system: BT-549
UACC-62 = system: UACC-62
T47D = system: T47D
NCI-H460 = system: NCI-H460
HCT-116 = system: HCT-116
DU-145 = system: DU-145
MDA-MB-231 = system: MDA-MB-231
TK-10 = system: TK-10
SF-539 = system: SF-539
OVCAR-5 = system: OVCAR-5
SR = system: SR
SK-MEL-5 = system: SK-MEL-5
MDA-MB-435 = system: MDA-MB-435
A498 = system: A498
SK-MEL-28 = system: SK-MEL-28
EKVX = system: EKVX
OVCAR-3 = system: OVCAR-3
OVCAR-8 = system: OVCAR-8
SNB-19 = system: SNB-19
SF-295 = system: SF-295
SK-OV-3 = system: SK-OV-3
KM12 = system: KM12
SN12C = system: SN12C
NCI-H226 = system: NCI-H226
SK-MEL-2 = system: SK-MEL-2
A549 = system: A549
ACHN = system: ACHN
786-0 = system: 786-0
HT-29 = system: HT-29
RXF 393 = system: RXF 393
HL-60 = system: HL-60
U-251 = system: U-251
HCT-15 = system: HCT-15
NCI-H522 = system: NCI-H522
RPMI-8226 = system: RPMI-8226
MOLT-4 = system: MOLT-4
SF-268 = system: SF-268
NCI-H23 = system: NCI-H23
UO-31 = system: UO-31
IGROV-1 = system: IGROV-1
CCRF-CEM = system: CCRF-CEM
HCC 2998 = system: HCC 2998

## O=S(=O)(O)n1ccnc1
Malme-3M
  GI50: > 100 µM (inactive)
NCI/ADR-RES
  GI50: > 100 µM (inactive)
SW-620
  GI50: > 100 µM (inactive)
PC-3
  GI50: > 100 µM (inactive)
SNB-75
  GI50: > 100 µM (inactive)
MDA-N
  GI50: > 100 µM (inactive)
K562
  GI50: > 100 µM (inactive)
Hs-578T
  GI50: > 100 µM (inactive)
MCF7
  GI50: > 100 µM (inactive)
CAKI-1
  GI50: > 100 µM (inactive)
HOP-92
  GI50: > 100 µM (inactive)
COLO 205
  GI50: > 100 µM (inactive)
OVCAR-4
  GI50: > 100 µM (inactive)
HOP-62
  GI50: > 100 µM (inactive)
M14
  GI50: > 100 µM (inactive)
UACC-257
  GI50: > 100 µM (inactive)
LOX IMVI
  GI50: > 100 µM (inactive)
BT-549
  GI50: > 100 µM (inactive)
UACC-62
  GI50: > 100 µM (inactive)
T47D
  GI50: > 100 µM (inactive)
NCI-H460
  GI50: > 100 µM (inactive)
HCT-116
  GI50: > 100 µM (inactive)
DU-145
  GI50: > 100 µM (inactive)
MDA-MB-231
  GI50: > 100 µM (inactive)
TK-10
  GI50: > 100 µM (inactive)
SF-539
  GI50: > 100 µM (inactive)
OVCAR-5
  GI50: > 100 µM (inactive)
SR
  GI50: > 100 µM (inactive)
SK-MEL-5
  GI50: > 100 µM (inactive)
MDA-MB-435
  GI50: > 100 µM (inactive)
A498
  GI50: > 100 µM (inactive)
SK-MEL-28
  GI50: > 100 µM (inactive)
EKVX
  GI50: > 100 µM (inactive)
OVCAR-3
  GI50: > 100 µM (inactive)
OVCAR-8
  GI50: > 100 µM (inactive)
SNB-19
  GI50: > 100 µM (inactive)
SF-295
  GI50: > 100 µM (inactive)
SK-OV-3
  GI50: > 100 µM (inactive)
KM12
  GI50: > 100 µM (inactive)
SN12C
  GI50: > 100 µM (inactive)
NCI-H226
  GI50: > 100 µM (inactive)
SK-MEL-2
  GI50: 77.3 µM (inactive)
A549
  GI50: > 100 µM (inactive)
ACHN
  GI50: > 100 µM (inactive)
786-0
  GI50: > 100 µM (inactive)
HT-29
  GI50: > 100 µM (inactive)
RXF 393
  GI50: > 100 µM (inactive)
HL-60
  GI50: > 100 µM (inactive)
U-251
  GI50: > 100 µM (inactive)
HCT-15
  GI50: > 100 µM
NCI-H522
  GI50: > 100 µM (inactive)
RPMI-8226
  GI50: > 100 µM (inactive)
MOLT-4
  GI50: > 100 µM (inactive)
SF-268
  GI50: > 100 µM (inactive)
NCI-H23
  GI50: > 100 µM (inactive)
UO-31
  GI50: > 100 µM (inactive)
IGROV-1
  GI50: > 100 µM (inactive)

## CCCCCCCC/C=C(\Br)C(O)C(Br)Br (stereo not given)
Malme-3M
  GI50: 21.1 µM (inactive)
NCI/ADR-RES
  GI50: 26.2 µM (inactive)
SW-620
  GI50: 16.3 µM (inactive)
PC-3
  GI50: 38.1 µM (inactive)
SNB-75
  GI50: 36 µM (inactive)
MDA-N
  GI50: 21.8 µM (inactive)
K562
  GI50: 69.7 µM (inactive)
Hs-578T
  GI50: 22.8 µM (inactive)
MCF7
  GI50: 25.5 µM (inactive)
CAKI-1
  GI50: 19.5 µM (inactive)
HOP-92
  GI50: 20.9 µM (inactive)
COLO 205
  GI50: 18.9 µM (inactive)
OVCAR-4
  GI50: 20.6 µM (inactive)
HOP-62
  GI50: 19.6 µM (inactive)
M14
  GI50: 22.7 µM (inactive)
UACC-257
  GI50: 28 µM (inactive)
LOX IMVI
  GI50: 19.9 µM (inactive)
BT-549
  GI50: 22.4 µM (inactive)
UACC-62
  GI50: 19.3 µM (inactive)
T47D
  GI50: 31 µM (inactive)
NCI-H460
  GI50: 30.4 µM (inactive)
HCT-116
  GI50: 27.2 µM (inactive)
DU-145
  GI50: 38.6 µM (inactive)
MDA-MB-231
  GI50: 36.8 µM (inactive)
TK-10
  GI50: 39.4 µM (inactive)
OVCAR-5
  GI50: 19.3 µM (inactive)
SR
  GI50: 40.8 µM (inactive)
SK-MEL-5
  GI50: 17.9 µM (inactive)
MDA-MB-435
  GI50: 21.5 µM (inactive)
A498
  GI50: 31 µM (inactive)
SK-MEL-28
  GI50: 29.2 µM (inactive)
EKVX
  GI50: 28.2 µM (inactive)
OVCAR-3
  GI50: 17.4 µM (inactive)
CCRF-CEM
  GI50: 16.1 µM (inactive)
OVCAR-8
  GI50: 23.4 µM (inactive)
SNB-19
  GI50: 31.8 µM (inactive)
SF-295
  GI50: 18 µM (inactive)
SK-OV-3
  GI50: 26.6 µM (inactive)
KM12
  GI50: 19.1 µM (inactive)
SN12C
  GI50: 17.3 µM (inactive)
SK-MEL-2
  GI50: 24.8 µM (inactive)
A549
  GI50: 31.4 µM (inactive)
ACHN
  GI50: 22.3 µM (inactive)
786-0
  GI50: 18.5 µM (inactive)
RXF 393
  GI50: 19.3 µM (inactive)
U-251
  GI50: 30 µM (inactive)
HCT-15
  GI50: 20.6 µM
NCI-H522
  GI50: 19.1 µM (inactive)
RPMI-8226
  GI50: 42.7 µM (inactive)
MOLT-4
  GI50: > 100 µM (inactive)
SF-268
  GI50: 23.2 µM (inactive)
NCI-H23
  GI50: 22.1 µM (inactive)
HCC 2998
  GI50: 18.8 µM (inactive)
UO-31
  GI50: 19.4 µM (inactive)
IGROV-1
  GI50: 24.7 µM (inactive)

## COC(=O)C(CCC1C=CN(S(=O)(=O)c2ccc(C)cc2)C1)/N=C/c1ccccc1 (stereo not given)
NCI/ADR-RES
  GI50: > 100 µM (inactive)
SW-620
  GI50: 41.1 µM (inactive)
PC-3
  GI50: 32.7 µM (inactive)
SNB-75
  GI50: 52.5 µM (inactive)
MDA-N
  GI50: 38.3 µM (inactive)
K562
  GI50: 34.7 µM (inactive)
Hs-578T
  GI50: > 100 µM (inactive)
MCF7
  GI50: 34.2 µM (inactive)
CAKI-1
  GI50: 87.3 µM (inactive)
HOP-92
  GI50: 29.7 µM (inactive)
COLO 205
  GI50: 18.2 µM (inactive)
OVCAR-4
  GI50: 46.1 µM (inactive)
HOP-62
  GI50: 59.2 µM (inactive)
M14
  GI50: 42.7 µM (inactive)
UACC-257
  GI50: 50 µM (inactive)
LOX IMVI
  GI50: 47.4 µM (inactive)
BT-549
  GI50: 39.6 µM (inactive)
UACC-62
  GI50: 32.8 µM (inactive)
T47D
  GI50: 47.6 µM (inactive)
NCI-H460
  GI50: 44.9 µM (inactive)
HCT-116
  GI50: 33.4 µM (inactive)
DU-145
  GI50: 43 µM (inactive)
MDA-MB-231
  GI50: 39.6 µM (inactive)
TK-10
  GI50: 83.2 µM (inactive)
SF-539
  GI50: 38.6 µM (inactive)
OVCAR-5
  GI50: 60.7 µM (inactive)
SR
  GI50: 23.4 µM (inactive)
SK-MEL-5
  GI50: 22.2 µM (inactive)
MDA-MB-435
  GI50: 33.2 µM (inactive)
A498
  GI50: 99.3 µM (inactive)
SK-MEL-28
  GI50: 69.5 µM (inactive)
EKVX
  GI50: 42.2 µM (inactive)
OVCAR-3
  GI50: 35.9 µM (inactive)
CCRF-CEM
  GI50: 1.99 µM (inactive)
OVCAR-8
  GI50: 39.5 µM (inactive)
SNB-19
  GI50: 45 µM (inactive)
SF-295
  GI50: 41.1 µM (inactive)
SK-OV-3
  GI50: 80 µM (inactive)
KM12
  GI50: 34.8 µM (inactive)
SN12C
  GI50: 35.5 µM (inactive)
NCI-H226
  GI50: 32.3 µM (inactive)
SK-MEL-2
  GI50: 20.1 µM (inactive)
A549
  GI50: 42.4 µM (inactive)
ACHN
  GI50: > 100 µM (inactive)
786-0
  GI50: 43.8 µM (inactive)
HT-29
  GI50: 30.9 µM (inactive)
RXF 393
  GI50: 75.5 µM (inactive)
HL-60
  GI50: 1.29 µM (inactive)
U-251
  GI50: 43.5 µM (inactive)
HCT-15
  GI50: 88.5 µM
NCI-H522
  GI50: 34.4 µM (inactive)
RPMI-8226
  GI50: 28.1 µM (inactive)
MOLT-4
  GI50: 32.8 µM (inactive)
SF-268
  GI50: 69.8 µM (inactive)
NCI-H23
  GI50: 26.4 µM (inactive)
HCC 2998
  GI50: 43.1 µM (inactive)
UO-31
  GI50: 65.5 µM (inactive)
IGROV-1
  GI50: 38.4 µM (inactive)
